Patent US20240150377A1, “MODULATORS OF CYSTIC FIBROSIS TRANSMEMBRANE CONDUCTANCE REGULATOR” (VERTEX PHARMACEUTICALS INCORPORATED, priority 2020, published 2024)
Where two headings read alike, the source gives them in different places.

Target: T1, CFTR (Homo sapiens, UniProt P13569, DEL508-508)
T1 construct: endogenous in cells; host or cells: primary human bronchial epithelial cells from CF subjects (F508del/MF-HBE), differentiated at air-liquid interface
Assay: HBE assay: Ussing chamber assay of CFTR-mediated short-circuit currents
Type: cell-based
Conditions: for activation at 10 µM: read-out: HBE Activity at 10 μM (%); for EC50: read-out: HBE EC50; for Emax: read-out: HBE Max Activity (%)
Method in brief: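 CFTR-mediated Isc (μA/cm²) equals the peak response to apical 20 μM forskolin minus the residual after a 20 μM each BPO/GlyH-101/CFTR inhibitor 172 cocktail, recorded in Ussing chambers at Vhold 0 mV, 37 °C, pH 7.4, with 30 μM apical amiloride. Cells were F508del/MF HBE cultures preincubated 18-24 h with corrector (concentration range or 10 μM) plus 1 μM ivacaftor in 20% human serum.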

T1 sequence (P13569 with tags, fused parts or gaps DEL508-508): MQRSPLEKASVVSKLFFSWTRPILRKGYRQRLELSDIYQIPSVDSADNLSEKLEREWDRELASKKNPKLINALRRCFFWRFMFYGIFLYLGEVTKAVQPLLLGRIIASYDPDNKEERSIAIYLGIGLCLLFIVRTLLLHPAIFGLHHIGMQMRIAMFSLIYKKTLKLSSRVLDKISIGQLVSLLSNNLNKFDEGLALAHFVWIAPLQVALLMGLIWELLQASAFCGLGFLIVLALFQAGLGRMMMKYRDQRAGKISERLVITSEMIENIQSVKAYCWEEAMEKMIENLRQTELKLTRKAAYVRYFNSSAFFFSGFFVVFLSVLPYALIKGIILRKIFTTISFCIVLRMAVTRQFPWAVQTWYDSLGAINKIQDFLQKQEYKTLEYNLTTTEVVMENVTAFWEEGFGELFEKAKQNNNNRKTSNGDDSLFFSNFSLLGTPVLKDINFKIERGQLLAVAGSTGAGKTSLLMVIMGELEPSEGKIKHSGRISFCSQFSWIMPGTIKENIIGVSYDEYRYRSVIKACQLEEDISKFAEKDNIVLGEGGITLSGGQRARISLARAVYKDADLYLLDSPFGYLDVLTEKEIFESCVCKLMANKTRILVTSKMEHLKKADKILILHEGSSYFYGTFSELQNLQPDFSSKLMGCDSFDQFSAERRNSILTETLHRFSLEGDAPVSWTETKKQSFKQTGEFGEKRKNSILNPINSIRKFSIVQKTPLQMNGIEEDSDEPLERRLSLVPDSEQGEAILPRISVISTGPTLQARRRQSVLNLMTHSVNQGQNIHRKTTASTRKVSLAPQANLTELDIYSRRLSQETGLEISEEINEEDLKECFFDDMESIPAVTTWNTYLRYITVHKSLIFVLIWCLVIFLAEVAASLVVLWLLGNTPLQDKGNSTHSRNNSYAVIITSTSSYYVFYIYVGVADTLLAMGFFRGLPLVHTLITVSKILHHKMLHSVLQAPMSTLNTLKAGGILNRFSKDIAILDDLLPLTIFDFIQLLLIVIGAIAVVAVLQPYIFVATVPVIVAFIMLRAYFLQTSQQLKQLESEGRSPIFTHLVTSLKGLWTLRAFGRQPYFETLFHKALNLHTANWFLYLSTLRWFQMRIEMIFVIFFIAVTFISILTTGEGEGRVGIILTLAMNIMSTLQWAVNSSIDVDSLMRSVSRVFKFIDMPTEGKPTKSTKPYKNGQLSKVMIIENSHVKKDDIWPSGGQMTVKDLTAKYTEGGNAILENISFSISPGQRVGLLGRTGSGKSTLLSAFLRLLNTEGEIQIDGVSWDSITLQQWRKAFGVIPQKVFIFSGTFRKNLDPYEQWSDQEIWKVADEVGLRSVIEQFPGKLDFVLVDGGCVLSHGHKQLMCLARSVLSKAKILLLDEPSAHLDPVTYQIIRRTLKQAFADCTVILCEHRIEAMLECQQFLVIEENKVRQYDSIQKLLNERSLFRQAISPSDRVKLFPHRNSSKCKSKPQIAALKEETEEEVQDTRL

With Cc1cccc(C)c1-c1cc2nc(n1)NS(=O)(=O)c1cccc(c1)C(=O)N(CC(=O)N1CCC[C@@H](C)C1)[C@H](CC(C)(C)C)CO2 [Compound 184] the activation at 10 µM (Table 13) was over 600%.

For Cc1cccc(C)c1-c1cc2nc(n1)NS(=O)(=O)c1cccc(c1)C(=O)N(CC(=O)N1C[C@H](C)O[C@@H](C)C1)[C@H](CC(C)(C)C)CO2 [Compound 185], the activation at 10 µM (Table 13) was over 600%.

In the case of Cc1cccc(C)c1-c1cc2nc(n1)NS(=O)(=O)c1cccc(c1)C(=O)N(CC(=O)N1CCC(N(C)C)CC1)[C@H](CC(C)(C)C)CO2 [Compound 186], the activation at 10 µM (Table 13) is reported as over 600%.

Cc1cccc(C)c1-c1cc2nc(n1)NS(=O)(=O)c1cccc(c1)C(=O)N(CC(=O)N1CCN(C(C)C)CC1)[C@H](CC(C)(C)C)CO2 [Compound 187] gave an activation at 10 µM (Table 13) of over 600%.

Cc1cccc(C)c1-c1cc2nc(n1)NS(=O)(=O)c1cccc(c1)C(=O)N(CC(=O)N1CCCC1c1ccccc1)[C@H](CC(C)(C)C)CO2 (stereo partly shown) [Compound 188] showed an activation at 10 µM (Table 13) of over 600%.

In the case of Cc1cccc(C)c1-c1cc2nc(n1)NS(=O)(=O)c1cccc(c1)C(=O)N(CC(=O)NC1CCOCC1)[C@H](CC(C)(C)C)CO2 [Compound 189], the activation at 10 µM (Table 13) is reported as over 600%.

Cc1cccc(C)c1-c1cc2nc(n1)NS(=O)(=O)c1cccc(c1)C(=O)N(CC(=O)N1[C@H](C)CCC[C@@H]1C)[C@H](CC(C)(C)C)CO2 [Compound 190] gave an activation at 10 µM (Table 13) of over 600%.

Work on Cc1cccc(C)c1-c1cc2nc(n1)NS(=O)(=O)c1cccc(c1)C(=O)N(CC(=O)N1CCC(c3ccccc3)C1)[C@H](CC(C)(C)C)CO2 (stereo partly shown) [Compound 191] yielded an activation at 10 µM (Table 13) of over 600%.

Work on CCC1CCC(NC(=O)CN2C(=O)c3cccc(c3)S(=O)(=O)Nc3nc(cc(-c4c(C)cccc4C)n3)OC[C@H]2CC(C)(C)C)CC1 (stereo partly shown) [Compound 192] yielded an activation at 10 µM (Table 13) of over 600%.

Molecule Cc1cccc(C)c1-c1cc2nc(n1)NS(=O)(=O)c1cccc(c1)C(=O)N(CC(=O)N(C)CC1CCCOC1)[C@H](CC(C)(C)C)CO2 (stereo partly shown) [Compound 193] has an activation at 10 µM (Table 13) of over 600%.

Cc1cccc(C)c1-c1cc2nc(n1)NS(=O)(=O)c1cccc(c1)C(=O)N(CC(=O)N[C@H]1CC[C@H](C)CC1)[C@H](CC(C)(C)C)CO2 [Compound 194] showed an activation at 10 µM (Table 13) of over 600%.

Cc1cccc(C)c1-c1cc2nc(n1)NS(=O)(=O)c1cccc(c1)C(=O)N(CC(=O)N1CCC[C@H](c3ccccc3)C1)[C@H](CC(C)(C)C)CO2 [Compound 195] showed an activation at 10 µM (Table 13) of over 600%.

Cc1cccc(C)c1-c1cc2nc(n1)NS(=O)(=O)c1cccc(c1)C(=O)N(CC(=O)N1CCCCC1c1ccccc1)[C@H](CC(C)(C)C)CO2 (stereo partly shown) [Compound 196] was tested, and the activation at 10 µM (Table 13) was over 600%.

For Cc1cccc(C)c1-c1cc2nc(n1)NS(=O)(=O)c1cccc(c1)C(=O)N(CC(=O)N1CCOCC1)[C@H](CC(C)(C)C)CO2 [Compound 197], the activation at 10 µM (Table 13) was over 600%.

In the case of Cc1cccc(C)c1-c1cc2nc(n1)NS(=O)(=O)c1cccc(c1)C(=O)N(CC(=O)NC1CCCC1)[C@H](CC(C)(C)C)CO2 [Compound 198], the activation at 10 µM (Table 13) is reported as over 600%.

For Cc1cccc(C)c1-c1cc2nc(n1)NS(=O)(=O)c1cccc(c1)C(=O)N(CC(=O)N1C[C@@H](C)O[C@@H](C)C1)[C@H](CC(C)(C)C)CO2 [Compound 199], the activation at 10 µM (Table 13) was over 600%.

Cc1cccc(C)c1-c1cc2nc(n1)NS(=O)(=O)c1cccc(c1)C(=O)N(CC(=O)N1CCCCC1)[C@H](CC(C)(C)C)CO2 [Compound 200] showed an activation at 10 µM (Table 13) of over 600%.

Cc1cccc(C)c1-c1cc2nc(n1)NS(=O)(=O)c1cccc(c1)C(=O)N(CC(=O)N1CCC(OC(C)C)C1)[C@H](CC(C)(C)C)CO2 (stereo partly shown) [Compound 201] showed an activation at 10 µM (Table 13) of over 600%.

In the case of Cc1cccc(C)c1-c1cc2nc(n1)NS(=O)(=O)c1cccc(c1)C(=O)N(CC(=O)N1C[C@@H](C)[C@@H](C)C1)[C@H](CC(C)(C)C)CO2 [Compound 202], the activation at 10 µM (Table 13) is reported as over 600%.

Cc1cccc(C)c1-c1cc2nc(n1)NS(=O)(=O)c1cccc(c1)C(=O)N(CC(=O)N1CCC(c3ccccc3)CC1)[C@H](CC(C)(C)C)CO2 [Compound 203] showed an activation at 10 µM (Table 13) of over 600%.

For Cc1cccc(C)c1-c1cc2nc(n1)NS(=O)(=O)c1cccc(c1)C(=O)N(CC(=O)N1C[C@H](C)CC1(C)C)[C@H](CC(C)(C)C)CO2 [Compound 204], the activation at 10 µM (Table 13) was over 600%.

In the case of Cc1cccc(C)c1-c1cc2nc(n1)NS(=O)(=O)c1cccc(c1)C(=O)N(CC(=O)NC1CCCCC1)[C@H](CC(C)(C)C)CO2 [Compound 205], the activation at 10 µM (Table 13) is reported as over 600%.

With Cc1cccc(C)c1-c1cc2nc(n1)NS(=O)(=O)c1cccc(c1)C(=O)N(CC(=O)N1CCc3c(Cl)nc(C(F)(F)F)nc3C1)[C@H](CC(C)(C)C)CO2 [Compound 206] the activation at 10 µM (Table 13) was 30 to 60%.

For Cc1cccc(C)c1-c1cc2nc(n1)NS(=O)(=O)c1cccc(c1)C(=O)N(CC(=O)N1CCc3ccccc3C1)[C@H](CC(C)(C)C)CO2 [Compound 207], the activation at 10 µM (Table 13) was over 600%.

For Cc1cccc(C)c1-c1cc2nc(n1)NS(=O)(=O)c1cccc(c1)C(=O)N(CC(=O)N1CCC(C)(C)CC1)[C@H](CC(C)(C)C)CO2 [Compound 208], the activation at 10 µM (Table 13) was over 600%.

For Cc1ccc2c(c1)CCN(C(=O)CN1C(=O)c3cccc(c3)S(=O)(=O)Nc3nc(cc(-c4c(C)cccc4C)n3)OC[C@H]1CC(C)(C)C)C2 [Compound 209], the activation at 10 µM (Table 13) was over 600%.

For Cc1cccc(C)c1-c1cc2nc(n1)NS(=O)(=O)c1cccc(c1)C(=O)N(CC(=O)N1CCC(C(C)(C)C)CC1)[C@H](CC(C)(C)C)CO2 [Compound 210], the activation at 10 µM (Table 13) was over 600%.

In the case of Cc1cccc(C)c1-c1cc2nc(n1)NS(=O)(=O)c1cccc(c1)C(=O)N(CC(=O)N1CCc3ccccc3C1C)[C@H](CC(C)(C)C)CO2 (stereo partly shown) [Compound 211], the activation at 10 µM (Table 13) is reported as over 600%.

Work on Cc1cccc(C)c1-c1cc2nc(n1)NS(=O)(=O)c1cccc(c1)C(=O)N(CC(=O)N1CCOCC1C(C)C)[C@H](CC(C)(C)C)CO2 (stereo partly shown) [Compound 212] yielded an activation at 10 µM (Table 13) of over 600%.

For Cc1cccc(C)c1-c1cc2nc(n1)NS(=O)(=O)c1cccc(c1)C(=O)N(CC(=O)N1CCCC1(C)C)[C@H](CC(C)(C)C)CO2 [Compound 213], the activation at 10 µM (Table 13) was over 600%.

For Cc1cccc(C)c1-c1cc2nc(n1)NS(=O)(=O)c1cccc(c1)C(=O)N(CC(=O)N1CCOCC1(C)C)[C@H](CC(C)(C)C)CO2 [Compound 214], the activation at 10 µM (Table 13) was over 600%.

In the case of Cc1cccnc1CNC(=O)CN1C(=O)c2cccc(c2)S(=O)(=O)Nc2nc(cc(-c3c(C)cccc3C)n2)OC[C@H]1CC(C)(C)C [Compound 215], the activation at 10 µM (Table 12) is reported as over 600%.

Cc1cccc(C)c1-c1cc2nc(n1)NS(=O)(=O)c1cccc(c1)C(=O)N(CC(=O)NCc1cnccn1)[C@H](CC(C)(C)C)CO2 [Compound 216] showed an activation at 10 µM (Table 12) of over 600%.

Cc1ccccc1CNC(=O)CN1C(=O)c2cccc(c2)S(=O)(=O)Nc2nc(cc(-c3c(C)cccc3C)n2)OC[C@H]1CC(C)(C)C [Compound 217] showed an activation at 10 µM (Table 12) of over 600%.

In the case of Cc1ccnc(CNC(=O)CN2C(=O)c3cccc(c3)S(=O)(=O)Nc3nc(cc(-c4c(C)cccc4C)n3)OC[C@H]2CC(C)(C)C)c1 [Compound 218], the activation at 10 µM (Table 12) is reported as over 600%.

In the case of Cc1cccc(C)c1-c1cc2nc(n1)NS(=O)(=O)c1cccc(c1)C(=O)N(CC(=O)NCc1ccccc1)[C@H](CC(C)(C)C)CO2 [Compound 219], the activation at 10 µM (Table 13) is reported as over 600%.

With Cc1cccc(C)c1-c1cc2nc(n1)NS(=O)(=O)c1cccc(c1)C(=O)N(CC(=O)NCc1ccccn1)[C@H](CC(C)(C)C)CO2 [Compound 220] the activation at 10 µM (Table 13) was over 600%.

Cc1cccc(C)c1-c1cc2nc(n1)NS(=O)(=O)c1cccc(c1)C(=O)N(CC(=O)N(C)Cc1ccccn1)[C@H](CC(C)(C)C)CO2 [Compound 221] showed an EC50 (Table 12) of under 1000 nM and an Emax (Table 12) of over 60%.

With Cc1cccc(C)c1-c1cc2nc(n1)NS(=O)(=O)c1cccc(c1)C(=O)N(CC(=O)N(C)CC1CCOCC1)[C@H](CC(C)(C)C)CO2 [Compound 223] the activation at 10 µM (Table 13) was over 600%.

Cc1cccc(C)c1-c1cc2nc(n1)NS(=O)(=O)c1cccc(c1)C(=O)N(CC(=O)N(C)CCN(C)C)[C@H](CC(C)(C)C)CO2 [Compound 224] gave an activation at 10 µM (Table 12) of over 600%.

Work on Cc1cccc(C)c1-c1cc2nc(n1)NS(=O)(=O)c1cccc(c1)C(=O)N(CC(=O)N(C)CC1CCCCO1)[C@H](CC(C)(C)C)CO2 (stereo partly shown) [Compound 225] yielded an activation at 10 µM (Table 13) of over 600%.

For Cc1cccc(C)c1-c1cc2nc(n1)NS(=O)(=O)c1cccc(c1)C(=O)N(CC(=O)N(C)CCN1CCOCC1)[C@H](CC(C)(C)C)CO2 [Compound 226], the activation at 10 µM (Table 13) was over 600%.

Cc1cccc(C)c1-c1cc2nc(n1)NS(=O)(=O)c1cccc(c1)C(=O)N(CC(=O)NCC1CCCC1)[C@H](CC(C)(C)C)CO2 [Compound 228] was tested, and the activation at 10 µM (Table 12) was 30 to 60%.

In the case of Cc1cccc(C)c1-c1cc2nc(n1)NS(=O)(=O)c1cccc(c1)C(=O)N(CC(=O)N(C)CC1CCCC1)[C@H](CC(C)(C)C)CO2 [Compound 229], the activation at 10 µM (Table 12) is reported as over 600%.

Work on Cc1cccc(C)c1-c1cc2nc(n1)NS(=O)(=O)c1cccc(c1)C(=O)N(CC(=O)NCC1CCCCC1)[C@H](CC(C)(C)C)CO2 [Compound 230] yielded an EC50 (Table 12) of under 1000 nM and an Emax (Table 12) of over 60%.

In the case of Cc1cccc(C)c1-c1cc2nc(n1)NS(=O)(=O)c1cccc(c1)C(=O)N(CC(=O)N(C)CC1CCCCC1)[C@H](CC(C)(C)C)CO2 [Compound 231], the EC50 (Table 12) is reported as under 1000 nM and the Emax (Table 12) is reported as over 60%.

Cc1cccc(C)c1-c1cc2nc(n1)NS(=O)(=O)c1cccc(c1)C(=O)N(Cc1cn(C(C)C)cn1)[C@H](CC(C)(C)C)CO2 [Compound 232] was tested, and the activation at 10 µM (Table 12) was over 600%.

Molecule Cc1cccc(C)c1-c1cc2nc(n1)NS(=O)(=O)c1cccc(c1)C(=O)N(Cc1ccc(C3CCCCC3)nn1)[C@H](CC(C)(C)C)CO2 [Compound 233] has an activation at 10 µM (Table 12) of over 600%.

In the case of Cc1cccc(C)c1-c1cc2nc(n1)NS(=O)(=O)c1cccc(c1)C(=O)N(Cc1ccc(OC(C)C)nn1)[C@H](CC(C)(C)C)CO2 [Compound 234], the EC50 (Table 13) is reported as under 1000 nM and the Emax (Table 13) is reported as over 60%.

Cc1cccc(C)c1-c1cc2nc(n1)NS(=O)(=O)c1cccc(c1)C(=O)N(Cc1cccc(N(CC3CC3)C(C)C)n1)[C@H](CC(C)(C)C)CO2 [Compound 235] showed an EC50 (Table 13) of under 1000 nM and an Emax (Table 13) of over 60%.
